Structures are written as SMILES. Where two headings read alike, the source gives them in different places.

Broadly, the inhibition is the share of the control response that was lost under treatment.

One experiment deals with T1, NA transporter (Rattus norvegicus, UniProt Q63380).
T1 construct: from tissue; host or cells: rat brain synaptosomes (P2 fraction) from hypothalamus
Kind of experiment: Inhibition of noradrenaline uptake in rat brain synaptosomes. The experiment is classed as biochemical. Particulars: for inhibition at 10 µM: read-out: % Inhibition of NA uptake [10 μM]. The protocol: II. […] For in vitro studies, synaptosomes of rat brain areas are freshly isolated, as described in the article “The isolation of nerve endings from brain” by E. G. Gray and […]. Anatomy 96, pages 79-88, 1962. The relevant literature reference is enclosed herein by reference and is to be regarded as part of the disclosure. […] The homogenate is centrifuged at 4° C. for 10 minutes at 1000 g. […] The respective uptake was measured in a 96 well microtiter plate. The volume was 250 μL and the incubation was carried out at room temperature (ca 20-25° C.) under a blanket of oxygen. […] The 96 samples through were then filtered through a Unifilter GF/B® microtiter plate (Packard) and washed with 200 mL of incubated buffer with the aid of a “Brabdel Cell-Harvester MPXRI 96T”. The Unifilter GF/B plate was dried at 55° C. over a period of 1 h. The plate was then sealed with a back seal® (Packard) and there were then added 35 μL of scintillant fluid per well (Ultima Gold, Packard). Following sealing with a top seal® (Packard) and following adjustment of the equilibrium (approximately over a period of 5 h), the radioactivity is determined in a 1450 Microbeta® (Wallac). […] The amount of protein used in the above determination corresponded to the values known from the literature, such as is described in “Protein measurement with the folin phenol reagent”, Lowry et al., J. Biol. Chem., 193, 265-275, 1951. A detailed description of the method is disclosed in the literature, for example, in […], and B. […] The relevant literature references are incorporated herein by reference and are to be regarded as part of the disclosure.

The next experiment addresses T2, 5-HT uptake (Rattus norvegicus, UniProt P31652).
T2 construct: from tissue; host or cells: rat brain synaptosomes (P2 fraction) from marrow (medulla) and pons
The experiment can be described thus: Inhibition of 5-HT uptake in rat brain synaptosomes. The settings on record: rat synaptosomes (medulla and pons), [3H]-5-HT. In kind it is biochemical.

For experiment [1], the system named is phenylquinone-induced writhing reactions in mice. Kind of experiment: Analgesic test using the phenylquinone-induced writhing test on mice. The experiment is classed as in vivo, mouse. Particulars: male NMRI mice, phenylquinone i.p. The procedure: I. Analgesic Test Using the Writhing Test on Mice
The analysis of analgesic activity is carried out using the phenylquinone-induced writhing assay in mice, modified as described in the article by I. C. Hendershot and J. Forsaith ((1959) in J. Pharmacol. Exp. Ther. 125, 237-240. The relevant description is incorporated herein by reference and is to be regarded as part of the present disclosure.
For the present purpose, male NMRI mice are used having a weight of from 25 to 30 g. Groups of 10 animals per substance dose receive, 10 minutes after an intravenous dose of test substances, an intraperitoneal administration of 0.3 ml/mouse of a 0.02% strength aqueous solution of phenylquinone (phenylbenzoquinone, obtainable from Sigma, Deisenhofen; solution produced with the addition of 5% of ethanol and storage in a water bath at 45° C.). The animals are placed individually in observation cages. Using a pushbutton counter, the number of pain-induced stretching movements (so-called writhing reactions=straightening of the body accompanied by stretching of the rear extremities) was counted over a period of from 5 to 20 minutes following the administration of phenylquinone. The control is provided by animals receiving only physiological saline. All substances are tested using the standard dosage of 10 mg/kg. […]
For orientation: Writhing tests count abdominal constrictions after an irritant is injected.

Setting [2] is: 10 μM, rat synaptosomes (hypothalamus), [3H]-NA.

T2 sequence (P31652 whole entry): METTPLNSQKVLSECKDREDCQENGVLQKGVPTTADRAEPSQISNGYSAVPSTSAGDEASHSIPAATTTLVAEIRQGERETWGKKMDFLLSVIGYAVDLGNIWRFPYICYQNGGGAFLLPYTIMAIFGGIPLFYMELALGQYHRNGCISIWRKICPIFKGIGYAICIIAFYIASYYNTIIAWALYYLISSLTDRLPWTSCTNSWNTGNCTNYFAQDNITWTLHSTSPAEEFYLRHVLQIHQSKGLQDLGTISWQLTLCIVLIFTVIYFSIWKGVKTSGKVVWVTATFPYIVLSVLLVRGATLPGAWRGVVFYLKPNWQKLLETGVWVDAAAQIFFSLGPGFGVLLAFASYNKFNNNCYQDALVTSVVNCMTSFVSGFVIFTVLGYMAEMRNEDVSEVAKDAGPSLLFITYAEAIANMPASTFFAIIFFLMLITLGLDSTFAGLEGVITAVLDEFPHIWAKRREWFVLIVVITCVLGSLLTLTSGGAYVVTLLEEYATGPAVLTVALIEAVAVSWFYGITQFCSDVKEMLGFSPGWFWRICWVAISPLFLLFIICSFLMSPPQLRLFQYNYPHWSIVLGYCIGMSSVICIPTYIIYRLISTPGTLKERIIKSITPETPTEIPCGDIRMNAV
T1 sequence (Q63380 1-617): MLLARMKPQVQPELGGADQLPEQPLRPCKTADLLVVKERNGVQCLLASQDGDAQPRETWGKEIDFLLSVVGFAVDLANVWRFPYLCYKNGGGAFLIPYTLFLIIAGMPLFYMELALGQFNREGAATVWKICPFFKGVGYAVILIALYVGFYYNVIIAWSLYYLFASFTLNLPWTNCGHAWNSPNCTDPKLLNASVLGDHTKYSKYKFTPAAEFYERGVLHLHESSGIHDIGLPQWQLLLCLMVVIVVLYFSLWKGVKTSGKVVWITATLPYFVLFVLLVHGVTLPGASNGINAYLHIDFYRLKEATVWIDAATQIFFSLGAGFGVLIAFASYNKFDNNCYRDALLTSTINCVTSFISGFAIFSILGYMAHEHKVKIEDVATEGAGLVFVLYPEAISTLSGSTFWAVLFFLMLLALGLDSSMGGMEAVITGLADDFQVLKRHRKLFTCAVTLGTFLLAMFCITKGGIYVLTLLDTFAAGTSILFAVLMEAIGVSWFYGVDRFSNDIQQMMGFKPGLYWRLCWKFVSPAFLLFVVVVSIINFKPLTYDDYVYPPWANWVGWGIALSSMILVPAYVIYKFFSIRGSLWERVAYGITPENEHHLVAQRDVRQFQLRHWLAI

Take `O=C(CC1CCCCC1)Nc1nc2c(s1)CCCC2C(=O)NCC1CCN(Cc2c(Cl)cccc2Cl)C1` (centres unmarked) [Example 67, 2-(2-cyclohexylacetylamino)-4,5,6,7-tetrahydrobenzthiazol-4-carboxylic acid[1-(2,6-dichlorobenzyl)pyrrolidin-3-yl]methylamide]: on NA transporter (setting [2]), the “% Inhibition of NA uptake [10 μM]” value was found to be 42%. Moreover, the “% Inhibition of 5-HT uptake [10 μM]” value on 5-HT uptake is recorded as 97%.

Turning to `O=C(Nc1nc2c(s1)CCCC2C(=O)N1CCN(CCc2ccccc2)CC1)c1ccoc1` (centres unmarked) [Example 71, Furan-3-carboxylic acid[4-(4-phenethylpiperazin-1-carbonyl)-4,5,6,7-tetrahydrobenzthiazol-2-yl]amide], the “% Inhibition of NA uptake [10 μM]” value at NA transporter (setting [2]) is reported as 90%. For the same molecule, the “% Inhibition of 5-HT uptake [10 μM]” value at 5-HT uptake was determined as 66%.

Consider `O=C(CCc1ccccc1)Nc1nc2c(s1)CCCC2C(=O)N1CCN(c2cccc(C(F)(F)F)c2)CC1` (centres unmarked) [Example 72, 3-Phenyl-N-{4-[4-(3-trifluoromethylphenyl)piperazin-1-carbonyl]-4,5,6,7-tetrahydrobenzthiazol-2-yl}propionamide], for which the inhibition at 10 µM on NA transporter (setting [2]) amounted to 51%; against 5-HT uptake, 84%.

In the case of `CC(C)(C)CC(=O)Nc1nc2c(s1)CCCC2C(=O)NC1CCN(Cc2ccccc2OCc2ccccc2)C1` (centres unmarked) [Example 73, 2-(3,3-Dimethylbutyrylamino)-4,5,6,7-tetrahydrobenzthiazol-4-carboxylic acid [1-(2-benzyloxybenzyl)pyrrolidin-3-yl]amide], the inhibition at 10 µM on NA transporter (setting [2]) was determined as 75%; against 5-HT uptake it was 71%.

For `CCOc1ccccc1C(=O)Nc1nc2c(s1)CCCC2C(=O)N1CCN(C(C)c2ccccc2)CC1` (centres unmarked) [Example 75, 2-Ethoxy-N-{4-[4-(1-phenylethyl)piperazin-1-carbonyl]-4,5,6,7-tetrahydrobenzthiazol-2-yl}benzamide], the inhibition at 10 µM at NA transporter (setting [2]) was 51%; against 5-HT uptake, 59%.

In the case of `O=C(CC1CCCCC1)Nc1nc2c(s1)CCCC2C(=O)NCC1CCN(Cc2c(F)cccc2Cl)C1` (centres unmarked) [Example 78, 2-(2-Cyclohexylacetylamino)-4,5,6,7-tetrahydrobenzthiazol-4-carboxylic acid [1-(2-chloro-6-fluorobenzyl)pyrrolidin-3-yl]methylamide], the inhibition at 10 µM amounted to 41% on NA transporter (setting [2]) and 54% on 5-HT uptake.

With `O=C(Cc1ccc(F)cc1)Nc1nc2c(s1)CCCC2C(=O)N1CCN(c2ccccc2Cl)CC1` (centres unmarked) [Example 81, N-{4-[4-(2-Chlorophenyl)piperazin-1-carbonyl]-4,5,6,7-tetrahydrobenzthiazol-2-yl}-2-(4-fluorophenyl)acetamide], the inhibition at 10 µM worked out at 80% at NA transporter (setting [2]) and 50% at 5-HT uptake.

For the molecule `CC(C)(C)CC(=O)Nc1nc2c(s1)CCCC2C(=O)N1CCN(Cc2ccccc2)CC1` (centres unmarked) [Example 82, N-[4-(4-Benzylpiperazin-1-carbonyl)-4,5,6,7-tetrahydrobenzthiazol-2-yl]-3,3-dimethylbutyramide], the inhibition at 10 µM was 64% at NA transporter (setting [2]) and 41% against 5-HT uptake.

Consider `CC(C)(C)CC(=O)Nc1nc2c(s1)CCCC2C(=O)N1CCN(CC=Cc2ccccc2)CC1` (centres unmarked) [Example 87, 3,3-Dimethyl-N-{4-[4-(3-phenylallyl)piperazin-1-carbonyl]-4,5,6,7-tetrahydrobenzthiazol-2-yl}butyramide], for which the inhibition at 10 µM stood at 46% on NA transporter (setting [2]) and 56% against 5-HT uptake.

`O=C(Nc1nc2c(s1)CCCC2C(=O)N1CCN(c2ccccc2)CC1)c1ccco1` (centres unmarked) [Example 89, Furan-2-carboxylic acid[4-(4-phenylpiperazin-1-carbonyl)-4,5,6,7-tetrahydrobenzthiazol-2-yl]amide]: the inhibition at 10 µM at NA transporter was 77%. In addition, in experiment [1], the “% Inhibition of writhing reactions at 10 mg/kg intravenous” value turned out to be 41%.

These data come from US7348347B2, “Substituted 4,5,6,7-tetrahydrobenzthiazol-2-ylamine compounds” (Gruenenthal GmbH, priority 2004, dated 2008).
